The values that follow come from patent US12486269B2 (Aconcagua Bio, Inc., priority 2024, dated 2025).

Assay [1] deals with T1, COS-7/AMY3 (human calcitonin receptor (CTR) and RAMP3) (Homo sapiens, UniProt O60896+P30988).
T1 construct: expressed in transfected cells; host or cells: COS-7
The assay can be described thus: Amylin Receptor cAMP Assay II. The assay is classed as cell-based. Particulars: values marked **: Amylin Receptor cAMP Assay II; COS-7/AMY3 cells, cAMP dynamic 2 kit, 30 min; read-out: Amylin Receptor cAMP Stimulation Activity: EC50. The essentials:
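COS-7 cells stably co-expressing human CTR and RAMP3 (AMY3), 2000 cells/well in HBSS with 20 mM HEPES, 0.5 mM IBMX, 0.1% casein, stimulated with compound for 30 min at 37 °C. cAMP measured by HTRF (665/615 nm), activity normalized between vehicle and maximal control.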

Assay [2] has as its target T2, human calcitonin receptor (CTR) (Homo sapiens, UniProt P30988).
T2 construct: expressed in transfected cells; host or cells: COS-7 (COS7-human CTR Clone #2)
T2 sequence (P30988 25-474): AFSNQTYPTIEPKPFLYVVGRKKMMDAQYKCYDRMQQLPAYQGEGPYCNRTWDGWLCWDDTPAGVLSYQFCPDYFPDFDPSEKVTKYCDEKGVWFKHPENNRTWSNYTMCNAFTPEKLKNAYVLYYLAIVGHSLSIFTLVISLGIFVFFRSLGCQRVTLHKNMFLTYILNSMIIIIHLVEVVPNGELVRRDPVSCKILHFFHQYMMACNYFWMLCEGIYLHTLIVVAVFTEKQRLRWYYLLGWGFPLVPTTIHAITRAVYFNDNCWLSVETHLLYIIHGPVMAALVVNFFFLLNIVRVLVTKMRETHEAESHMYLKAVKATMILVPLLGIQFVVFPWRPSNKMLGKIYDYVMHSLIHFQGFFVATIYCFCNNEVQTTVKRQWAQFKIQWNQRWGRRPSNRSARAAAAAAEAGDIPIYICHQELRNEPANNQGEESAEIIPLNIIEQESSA
Nature of the assay: Calcitonin Receptor (CTR) cAMP Assay. The assay is classed as cell-based. Particulars: COS7-human CTR Clone #2 stable cell line, cAMP dynamic 2 kit, 30 min; read-out: Calcitonin Receptor cAMP Stimulation Activity: EC50. A digest of the protocol: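 COS-7 cells stably expressing human CTR (2000 cells/well) were incubated 30 min at 37 °C with 4-fold serially diluted compound in HBSS/20 mM HEPES/0.5 mM IBMX/0.1% casein. cAMP was detected by HTRF (665/615 nm) after 1 h at RT. % activity was normalised to vehicle and positive controls.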

Structures are written as SMILES.

T1 sequence (O60896 24-148, one chain of several): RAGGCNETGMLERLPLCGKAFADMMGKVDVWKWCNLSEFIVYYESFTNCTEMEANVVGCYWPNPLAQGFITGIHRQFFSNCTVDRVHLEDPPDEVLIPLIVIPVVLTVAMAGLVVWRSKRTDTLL

On to `O=C1c2c(nc(CCc3ccc(F)cc3)c(-c3n[nH]c(=O)o3)c2-c2cc3ccnc(Cc4coc5ccccc45)c3s2)[C@@H]2CCCN12` [Compound 248, (S)-5-(4-(7-(benzofuran-3-ylmethyl)thieno[2,3-c]pyridin-2-yl)-2-(4-fluorophenethyl)-5-oxo-7,8,9,9a-tetrahydro-5H-pyrido[2,3-a]pyrrolizin-3-yl)-1,3,4-oxadiazol-2(3H)-one], for which the results for the EC50 in assay [1] and in assay [2] were 4200 nM and 102 nM, respectively.
Turning to `O=C1c2c(nc(CCc3ccc(F)cc3)c(-c3n[nH]c(=O)o3)c2-c2cnc3c(ccn3Cc3ccc(F)cn3)c2)[C@@H]2CCCN12` [Compound 177, (S)-5-(2-(4-fluorophenethyl)-4-(1-((5-fluoropyridin-2-yl)methyl)-1H-pyrrolo[2,3-b]pyridin-5-yl)-5-oxo-7,8,9,9a-tetrahydro-5H-pyrido[2,3-a]pyrrolizin-3-yl)-1,3,4-oxadiazol-2(3H)-one], the concentration giving a half-maximal response (EC50) (usually the midpoint of the concentration-response curve) in assay [1] was found to be 1810 nM; in assay [2], 39.4 nM.
As to `COc1cccc2c1CC[C@H]2Nc1nccc2cc(-c3c4c(nc(CCc5ccc(C(F)(F)F)cc5)c3-c3noc(=O)[nH]3)[C@@H]3CCCN3C4=O)sc12` [Compound 123], the EC50 came out at 42.9 nM in assay [1] and 1.19 nM in assay [2].
On the same counts, the results for `COc1c(F)ccc2c1CC(F)(F)[C@@H]2Nc1nccc2cc(-c3c4c(nc(CCc5ccc(F)cc5)c3-c3n[nH]c(=O)o3)C35CC(CN3C4=O)C5)sc12` [Compound 292, (R)-5-(2-(4-fluorophenethyl)-5-oxo-4-(7-((2,2,5-trifluoro-4-methoxy-2,3-dihydro-1H-inden-1-yl)amino)thieno[2,3-c]pyridin-2-yl)-5,7,8,9-tetrahydro-8,9a-methanopyrido[2,3-a]pyrrolizin-3-yl)-1,3,4-oxadiazol-2(3H)-one] are 298 nM and 7.36 nM.
As to `COc1cccc2c1CC[C@H]2Nc1nccc2cc(-c3c(-c4n[nH]c(=O)o4)c(CCc4ccc(F)cc4)nc4c3S(=O)(=O)N3CCC[C@@H]43)sc12` [Compound 175, 5-((S)-2-(4-fluorophenethyl)-4-(7-(((R)-4-methoxy-2,3-dihydro-1H-inden-1-yl)amino)thieno[2,3-c]pyridin-2-yl)-5,5-dioxido-7,8,9,9a-tetrahydropyrrolo[1′,2′:2,3]isothiazolo[4,5-b]pyridin-3-yl)-1,3,4-oxadiazol-2(3H)-one], the results for the concentration giving a half-maximal response (EC50) in assay [1] and in assay [2] were 26.8 nM and 0.741 nM, respectively.
With `COc1cccc2c1CC[C@H]2Nc1nccc2cc(-c3c(-c4n[nH]c(=O)o4)c(CCc4ccc(F)cc4)nc4c3C(=O)N3C[C@H]5C[C@@]43C5)sc12` [Compound 181, (R)-5-(2-(4-fluorophenethyl)-4-(7-((4-methoxy-2,3-dihydro-1H-inden-1-yl)amino)thieno[2,3-c]pyridin-2-yl)-5-oxo-8,9-dihydro-5H,7H-8,9a-methanopyrido[2,3-a]pyrrolizin-3-yl)-1,3,4-oxadiazol-2(3H)-one], the EC50 came out at 3.5 nM in assay [1] and 0.105 nM in assay [2].
On the same counts, the results for `Cc1cc2cc(-c3c4c(nc(CCc5ccc(F)cc5)c3-c3n[nH]c(=O)o3)C35CC(CN3C4=O)C5)sc2c(N[C@@H]2CCc3c(Cl)cncc32)n1` [Compound 265, (R)-5-(4-(7-((4-chloro-6,7-dihydro-5H-cyclopenta[c]pyridin-7-yl)amino)-5-methylthieno[2,3-c]pyridin-2-yl)-2-(4-fluorophenethyl)-5-oxo-8,9-dihydro-5H,7H-8,9a-methanopyrido[2,3-a]pyrrolizin-3-yl)-1,3,4-oxadiazol-2(3H)-one] are 7.34 nM and 0.174 nM.
Take `CC(c1ccc(C#N)cn1)n1c(=O)oc2cc(-c3c4c(nc(CCc5ccc(F)cc5)c3-c3n[nH]c(=O)o3)[C@@H]3CCCN3C4=O)ccc21` (stereo partly drawn) [Compound 160, 6-[1-[6-[(9aS)-2-[2-(4-fluorophenyl)ethyl]-5-oxo-3-(2-oxo-3H-1,3,4-oxadiazol-5-yl)-7,8,9,9a-tetrahydropyrido[2,3-a]pyrrolizin-4-yl]-2-oxo-1,3-benzoxazol-3-yl]ethyl]pyridine-3-carbonitrile]: the EC50 in assay [1] worked out at 12.2 nM; in assay [2] it was 0.724 nM.
For `COc1c(F)ccc2c1C[C@@H](F)[C@H]2Nc1nccc2cc(-c3c4c(nc(CCc5ccc(F)cc5)c3-c3n[nH]c(=O)o3)C35CC(CN3C4=O)C5)sc12` [Compound 291, 5-(4-(7-(((1S,2R)-2,5-difluoro-4-methoxy-2,3-dihydro-1H-inden-1-yl)amino)thieno[2,3-c]pyridin-2-yl)-2-(4-fluorophenethyl)-5-oxo-5,7,8,9-tetrahydro-8,9a-methanopyrido[2,3-a]pyrrolizin-3-yl)-1,3,4-oxadiazol-2(3H)-one], in that order: 0.363 nM and 0.0138 nM.
Turning to `COc1c(F)ccc2c1CC[C@H]2Nc1nc(C)cc2cc(-c3c4c(nc(CCc5ccc(F)cc5)c3-c3n[nH]c(=O)o3)[C@@H]3CCCN3C4=O)sc12` [Compound 187, 5-((S)-4-(7-(((R)-5-fluoro-4-methoxy-2,3-dihydro-1H-inden-1-yl)amino)-5-methylthieno[2,3-c]pyridin-2-yl)-2-(4-fluorophenethyl)-5-oxo-7,8,9,9a-tetrahydro-5H-pyrido[2,3-a]pyrrolizin-3-yl)-1,3,4-oxadiazol-2(3H)-one], the values for the EC50 in assay [1] and in assay [2] were 0.608 nM and 0.0484 nM, respectively.
Consider `COc1c(F)ccc2c1C[C@H](F)[C@H]2Nc1nccc2cc(-c3c4c(nc(CCc5ccc(F)cc5)c3-c3n[nH]c(=O)o3)[C@@H]3CCCN3C4=O)sc12` [Compound 261, 5-((S)-4-(7-(((1S,2S)-2,5-difluoro-4-methoxy-2,3-dihydro-1H-inden-1-yl)amino)thieno[2,3-c]pyridin-2-yl)-2-(4-fluorophenethyl)-5-oxo-7,8,9,9a-tetrahydro-5H-pyrido[2,3-a]pyrrolizin-3-yl)-1,3,4-oxadiazol-2(3H)-one], for which the EC50 in assay [1] was 6.35 nM; in assay [2] it was 0.807 nM.
For `COc1cccc2c1CC[C@H]2Nc1nccc2cc(-c3c4c(nc(CCc5cccc(C6CCOC6)c5)c3-c3noc(=O)[nH]3)[C@@H]3CCCN3C4=O)sc12` (stereo partly drawn) [Compound 151, 3-((9aS)-4-(7-(((R)-4-methoxy-2,3-dihydro-1H-inden-1-yl)amino)thieno[2,3-c]pyridin-2-yl)-5-oxo-2-(3-(tetrahydrofuran-3-yl)phenethyl)-7,8,9,9a-tetrahydro-5H-pyrido[2,3-a]pyrrolizin-3-yl)-1,2,4-oxadiazol-5(4H)-one], the EC50 came out at 159 nM in assay [1] and 22 nM in assay [2].
Take `COc1cccc2c1CC[C@H]2Nc1nccc2cc(-c3c4c(nc(CCc5ccc(F)cc5)c3-c3n[nH]c(=O)o3)[C@H]3COCCN3C4=O)sc12` [Compound 234, (S)-2-(4-fluorophenethyl)-4-(7-(((R)-4-methoxy-2,3-dihydro-1H-inden-1-yl)amino)thieno[2,3-c]pyridin-2-yl)-3-(5-oxo-4,5-dihydro-1,3,4-oxadiazol-2-yl)-7,8,10,10a-tetrahydro-5H-pyrido[2′,3′:3,4]pyrrolo[2,1-c][1,4]oxazin-5-one]: the results for the EC50 in assay [1] and in assay [2] were 48.1 nM and 1.83 nM, respectively.
On the same counts, the results for `O=C1c2c(nc(CCC3CCOCC3)c(-c3cc(=O)[nH]o3)c2-c2cc3ccnc(NCc4ccc(F)c(F)c4)c3s2)[C@@H]2CCCN12` [Compound 206, (S)-5-(4-(7-((3,4-difluorobenzyl)amino)thieno[2,3-c]pyridin-2-yl)-5-oxo-2-(2-(tetrahydro-2H-pyran-4-yl)ethyl)-7,8,9,9a-tetrahydro-5H-pyrido[2,3-a]pyrrolizin-3-yl)isoxazol-3(2H)-one] are 1590 nM and 26.1 nM.
Regarding `O=C1c2c(nc(CCc3ccc(F)cc3)c(-c3n[nH]c(=O)o3)c2-c2ccc3c(c2)oc(=O)n3Cc2ncc(Cl)cc2F)[C@@H]2CCCN12` [Compound 208, (S)-3-((5-chloro-3-fluoropyridin-2-yl)methyl)-6-(2-(4-fluorophenethyl)-5-oxo-3-(5-oxo-4,5-dihydro-1,3,4-oxadiazol-2-yl)-7,8,9,9a-tetrahydro-5H-pyrido[2,3-a]pyrrolizin-4-yl)benzo[d]oxazol-2(3H)-one], the results for the EC50 in assay [1] and in assay [2] were 74.4 nM and 0.331 nM, respectively.
Consider `O=C1c2c(nc(CCc3ccc(F)cc3)c(-c3n[nH]c(=O)o3)c2-c2cc3ccnc(N[C@@H]4CCOc5c(F)cc(F)cc54)c3s2)[C@@H]2CCCN12` [Compound 259, 5-((S)-4-(7-(((R)-6,8-difluorochroman-4-yl)amino)thieno[2,3-c]pyridin-2-yl)-2-(4-fluorophenethyl)-5-oxo-7,8,9,9a-tetrahydro-5H-pyrido[2,3-a]pyrrolizin-3-yl)-1,3,4-oxadiazol-2(3H)-one], for which the half-maximal effective concentration (EC50) in assay [1] came to 1.52 nM; in assay [2] it was 0.152 nM.
